# Results as given in patent publication US20190105367A1, “ANTIMICROBIAL 4-OXOQUINOLIZINES” (Emergent Product Development Gaithersburg Inc., priority 2011, published 2019).
# pIC50: −log10 of the molar value. Where two headings read alike, the source gives them in different places. Marks after values point to notes of the source that are not given here.
# What was measured:
# A. baumannii J2 = assay: Preliminary MBC without and with sub-inhibitory polymyxin B (Example 4); type: cell-based, Acinetobacter baumannii; conditions: for MBC without PB: without polymyxin B
# [1] = system: Acinetobacter sp. (H064200250); assay: as above; type: cell-based; conditions: for MBC +[…] PB / MBC without PB: Acinetobacter spp. H064200250; for MBC without PB: without polymyxin B
# Experimental: The plates were incubated for 18-20 hours at 37° C. The MBC was read as the lowest concentration at which colony growth was ca. 90% less than the positive control (i.e. usually where single colonies or no colonies were observed).
# B. thailandensis = type: cell-based, Burkholderia thailandensis; conditions: for Dilutions improvement shift on B. thailandensis MIC90 (between pH 7 and pH 5): pH 7 vs pH 5
# A. baumannii A14 [2] = assay: Preliminary MBC without and with sub-inhibitory polymyxin B (Example 4); type: cell-based, Acinetobacter baumannii; conditions: A. baumannii A14, preliminary MBC, 1st experiment; for MBC +0.06 μg/ml PB: +0.06 μg/ml polymyxin B; for MBC without PB: without polymyxin B
# A. baumannii A14 [3] = assay: MIC without and with sub-inhibitory polymyxin B (Example 4); type: cell-based, Acinetobacter baumannii; conditions: 1st experiment; for MIC +0.06 μg/ml PB: +0.06 μg/ml polymyxin B; for MIC without PB/MIC + PB: ratio, PB 0.06 μg/ml
# [4] = system: strains of A. baumannii and one strain of Acinetobacter sp.; assay: MIC without polymyxin B, panel of Acinetobacter strains (Example 4); type: cell-based; conditions: for MIC range without PB Oct. 1, 2006 n = 8: 1st experiment, resistant strains, ATCC 19606, A329, A390 and A473 not taken
# S. aureus 101 = assay: MIC, standard panel of Gram-positive and Gram-negative strains (Example 2); type: cell-based; conditions: Staphylococcus aureus
# A. baumanii 19606 = assay: as above; type: cell-based; conditions: Acinetobacter baumannii
# [5] = system: GN56 Acinetobacter baumannii levofloxacin resistant clinical isolate; assay: Chequerboard synergy with polymyxin B, FICI (Example 6); type: cell-based
# In short: (§1)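 Broth microdilution chequerboard per CLSI in cation-adjusted Mueller-Hinton broth II; doubling dilutions spanning ≥2 above to 4 below each agent's MIC, polymyxin B fixed at 0.008–8 mg/L (0.004–4 mg/L for GN31). FICI summed from each agent's combination MIC over its MIC alone.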
# [6] = system: GN52 Acinetobacter baumannii levofloxacin resistant clinical isolate; assay: as above; type: cell-based
# In short: as §1
# [7] = system: GN48 Klebsiella pneumoniae NCTC 13443 NDM-1-β-lactamase producing isolate; assay: as above; type: cell-based
# In short: as §1
# [8] = system: GN31 Acinetobacter baumannii antibiotic susceptible isolate; assay: as above; type: cell-based
# In short: as §1
# Cytotoxicity (Example 7) = type: cell-based; conditions: human, HEPG2 V1 cells
# Experimental: The 4-oxoquinolizine compounds of the invention preferably have a low cytotoxicity against human cells. […].
# Cytotoxicity was determined for the instant 4-oxoquinolizine compounds which show low cytotoxicity. (see Table 17 following). […]
# E. cloacae 13047 = assay: MIC, standard panel of Gram-positive and Gram-negative strains (Example 2); type: cell-based, Enterobacter cloacae
# S. aureus 25923 = assay: as above; type: cell-based; conditions: Staphylococcus aureus
# S. aureus SMITH = assay: MIC, panel of quinolone-resistant strains (Example 2); type: cell-based; conditions: Staphylococcus aureus, read-out: MIC S. aureus SMITH
# S. epidermis 12228 = assay: MIC, standard panel of Gram-positive and Gram-negative strains (Example 2); type: cell-based, Staphylococcus epidermis; conditions: Staphylococcus
# E. faecalis 29212 = assay: as above; type: cell-based, Enterococcus faecalis
# [9] = A. baumannii J2, +[…] PB, preliminary MBC, 2nd experiment
# [10] = A. baumannii J2, +[…] polymyxin B, preliminary MBC, 1st experiment
# [11] = A. baumannii J2, without PB, preliminary MBC, 2nd experiment
# [12] = A. baumannii J2, preliminary MBC, 1st experiment
# [13] = Acinetobacter spp. H064200250 (OXA51), +[…] PB, preliminary MBC, 2nd experiment
# [14] = Acinetobacter spp. H064200250 (OXA51), without PB, preliminary MBC, 2nd experiment
# [15] = +[…] polymyxin B, preliminary MBC, 1st experiment
# [16] = preliminary MBC, 1st experiment
# [17] = Acinetobacter baumannii, J2, A. baumannii J2, +[…] PB, preliminary MBC, 2nd experiment, read-out: MBC
# [18] = Acinetobacter baumannii, J2, read-out: MBC +[…] PB, A. baumannii J2, +[…] polymyxin B, preliminary MBC, 1st experiment
# [19] = in combination with polymyxin B
# [20] = polymyxin B with the named antibiotic
# [21] = Acinetobacter, Acinetobacter spp. H064200250 (OXA51), +[…] PB, preliminary MBC, 2nd experiment, read-out: MBC
# [22] = Acinetobacter, read-out: MBC +[…] PB, Acinetobacter spp. H064200250, +[…] polymyxin B, preliminary MBC, 1st experiment
# [23] = Enterobacter cloacae, 13047; read-out: MIC E. cloacae 13047
# [24] = Enterococcus faecalis, 29212, read-out: MIC E. faecalis 29212
compound,measurement,setting,value
"8-[(3S)-3-aminocyclopentyl]-1- cyclopropyl-7-fluoro-9-methyl- 4-oxo-quinolizine-3-carboxylic acid [Compound 10, reference compound]",MBC,A. baumannii J2; [9],0.25 µg/mL
same,MBC +[…] PB,A. baumannii J2; [10],1 µg/mL
same,MBC,A. baumannii J2; [11],2 µg/mL
same,MBC without PB,A. baumannii J2; [12],1 µg/mL
same,MBC,[1]; [13],0.5 µg/mL
same,MBC,[1]; [14],1 µg/mL
same,MBC +[…] PB,[1]; [15],1 µg/mL
same,MBC without PB,[1]; [16],0.5 µg/mL
same,MIC90 B. thailandensis,B. thailandensis,<0.048 µg/mL
same,Dilutions improvement shift on B. thailandensis MIC90 (between pH 7 and pH 5),B. thailandensis,"Yes, 2x"
same,MBC +0.06 μg/ml PB,A. baumannii A14 [2],2.00 µg/mL
same,MBC without PB,A. baumannii A14 [2],2 µg/mL
same,MIC +0.06 μg/ml PB,A. baumannii A14 [3],8.00 µg/mL
same,MIC without PB/MIC + PB,A. baumannii A14 [3],1
same,MIC without PB,A. baumannii A14 [3]; without polymyxin B,8 µg/mL
same,"MIC range without PB Oct. 1, 2006 n = 8",[4],0.5 to 8 µg/mL
same,"MIC range without PB Oct. 14, 2008 n = 11","[4]; 2nd experiment, all strains except the ATCC strain",0.5 to 2 µg/mL
"Cc1c(-c2cc(F)c(N)cc2F)ccn2c(=O)c(C(=O)O)cc(C3CC3)c12 [Compound 2, 8-(4-amino-2,5-difluorophenyl)-1-cyclopropyl-9-methyl-4-oxo-4H-quinolizine-3-carboxylic acid]",MIC,S. aureus 101,0.125 µg/mL
same,MIC,A. baumanii 19606,0.06 µg/mL
same,MBC,A. baumannii J2; [17],≤ 0.03 µg/mL
same,MBC,A. baumannii J2; [18],≤ 0.03 µg/mL
same,Combination drug MIC alone,[5],16 µg/mL
same,FICx,[5],0.06
same,FICy,[5],0.50
same,FICI,[5]; combination with polymyxin B,0.56
same,Synergy,[5]; combination with polymyxin B,Partial synergy (partial synergy/addition (FICI 0.51 to 0.75))
same,Combination drug concentration in combination,[5]; [19],1 mg/L
same,Polymyxin B MIC in combination,[5]; [20],0.25 µg/mL
same,Combination drug MIC alone,[6],4 µg/mL
same,FICx,[6],0.25
same,FICy,[6],0.24
same,FICI,[6]; combination with polymyxin B,0.49
same,Synergy,[6]; combination with polymyxin B,Synergy (Synergy (FICI <0.5))
same,Combination drug concentration in combination,[6]; [19],1 mg/L
same,Polymyxin B MIC in combination,[6]; [20],0.12 µg/mL
same,Combination drug MIC alone,[7],32 µg/mL
same,FICx,[7],0.13
same,FICy,[7],0.50
same,FICI,[7]; combination with polymyxin B,0.63
same,Synergy,[7]; combination with polymyxin B,Partial synergy (partial synergy/addition (FICI 0.51 to 0.75))
same,Synergy,"[7]; combination with polymyxin B, listed as compound 2",partial synergy
same,Combination drug concentration in combination,[7]; [19],4 mg/L
same,Polymyxin B MIC in combination,[7]; [20],0.25 µg/mL
same,Combination drug MIC alone,[8],0.06 µg/mL
same,FICx,[8],0.25
same,FICy,[8],0.24
same,FICI,[8]; combination with polymyxin B,0.49
same,Synergy,[8]; combination with polymyxin B,Synergy (Synergy (FICI <0.5))
same,Combination drug concentration in combination,[8]; [19],0.015 mg/L
same,Polymyxin B MIC in combination,[8]; [20],0.06 µg/mL
same,MBC,[1]; [21],0.06 µg/mL
same,MBC,[1]; [22],≤ 0.03 µg/mL
same,MBC +0.06 μg/ml PB,A. baumannii A14 [2],≤0.03 µg/mL
same,MIC +0.06 μg/ml PB,A. baumannii A14 [3],≤0.03 µg/mL
same,MIC,"A. baumannii A14 [3]; Acinetobacter baumannii, 24 h, without polymyxin B, read-out: MIC without PB",16 µg/mL
same,MIC without PB/MIC + PB,A. baumannii A14 [3],≥512
same,pIC50,Cytotoxicity (Example 7),3.60
same,MIC,E. cloacae 13047; [23],0.25 µg/mL
"Cc1c(-c2ccc(CN)c(F)c2)ccn2c(=O)c(C(=O)O)cc(C3CC3)c12 [Compound 4, 8-(3-fluoro-4-aminomethyl-phenyl)-1-cyclopropyl-9-methyl-4-oxo-quinolizine-3-carboxylic acid]",MIC,A. baumanii 19606,0.25 µg/mL
same,MIC,S. aureus 25923,0.06 µg/mL
same,MIC,S. aureus SMITH; CIP R,0.125 µg/mL
same,MBC,A. baumannii J2; [17],0.06 µg/mL
same,MBC,A. baumannii J2; [18],1 µg/mL
same,MIC,S. epidermis 12228,0.06 µg/mL
same,MBC,[1]; [21],0.5 µg/mL
same,MBC,[1]; [22],8 µg/mL
same,MBC +0.06 μg/ml PB,A. baumannii A14 [2],8 µg/mL
same,MIC,"E. faecalis 29212; Enterococcus faecalis, 29212; read-out: MIC E. faecalis 29212",0.125 µg/mL
same,MIC +0.06 μg/ml PB,A. baumannii A14 [3],8 µg/mL
same,MIC without PB/MIC + PB,A. baumannii A14 [3],4
same,pIC50,Cytotoxicity (Example 7),4.22
same,MIC,E. cloacae 13047; [23],0.06 µg/mL
"Cc1c(-c2ccc(CN)cc2)ccn2c(=O)c(C(=O)O)cc(C3CC3)c12 [Compound 5, 8-(4-aminomethyl-phenyl)-1-cyclopropyl-9-methyl-4-oxo-quinolizine-3-carboxylic acid]",MIC,A. baumanii 19606,0.25 µg/mL
same,MIC,S. aureus 25923,0.03 µg/mL
same,MIC,S. aureus SMITH,0.125 µg/mL
same,MBC,A. baumannii J2; [18],0.5 µg/mL
same,MIC,S. epidermis 12228,0.06 µg/mL
same,MBC,[1]; Acinetobacter,4 µg/mL
same,MBC,[1]; [22],1 µg/mL
same,MBC +0.06 μg/ml PB,A. baumannii A14 [2],8 µg/mL
same,MIC,E. faecalis 29212; [24],0.125 µg/mL
same,MIC +0.06 μg/ml PB,A. baumannii A14 [3],4 µg/mL
same,MIC without PB/MIC + PB,A. baumannii A14 [3],8
same,MIC,E. cloacae 13047; [23],0.06 µg/mL
"Cc1c(-c2ccc(CN)cc2)c(F)cn2c(=O)c(C(=O)O)cc(C3CC3)c12 [Compound 6, 8-(4-aminomethyl-phenyl)-1-cyclopropyl-7-fluoro-9-methyl-4-oxo-quinolizine-3-carboxylic acid]",MIC,A. baumanii 19606,0.5 µg/mL
same,MIC,S. aureus 25923,0.03 µg/mL
same,MIC,S. aureus SMITH,0.125 µg/mL
same,MBC,"A. baumannii J2; Acinetobacter baumannii, J2",0.25 µg/mL
same,MBC,A. baumannii J2; [18],1 µg/mL
same,MIC,S. epidermis 12228,0.03 µg/mL
same,MBC,[1]; Acinetobacter,1 µg/mL
same,MBC,[1]; [22],4 µg/mL
same,Dilutions improvement shift on B. thailandensis MIC90 (between pH 7 and pH 5),B. thailandensis,No
same,MBC +0.06 μg/ml PB,A. baumannii A14 [2],8 µg/mL
same,MIC,E. faecalis 29212; [24],0.125 µg/mL
same,MIC +0.06 μg/ml PB,A. baumannii A14 [3],8 µg/mL
same,MIC without PB/MIC + PB,A. baumannii A14 [3],4
same,MIC,"E. cloacae 13047; Enterobacter cloacae, 13047, read-out: MIC E. cloacae 13047",0.125 µg/mL
Imipenem/cilastatin,MBC,A. baumannii J2; [9],≤0.125 µg/mL
same,MBC +[…] PB,A. baumannii J2; [10],≤0.125 µg/mL
same,MBC,A. baumannii J2; [11],8 µg/mL
same,MBC without PB,A. baumannii J2; [12],4 µg/mL
same,MBC,[1]; [13],0.5 µg/mL
same,MBC,[1]; [14],8 µg/mL
same,MBC +[…] PB,[1]; [15],2 (0.5)* μg/ml
same,MBC without PB,[1]; [16],16 µg/mL
same,MBC +0.06 μg/ml PB,A. baumannii A14 [2],1 µg/mL
same,MBC without PB,A. baumannii A14 [2],2 µg/mL
same,MIC +0.06 μg/ml PB,A. baumannii A14 [3],1 µg/mL
same,MIC without PB,A. baumannii A14 [3]; without polymyxin B,1 µg/mL
same,"MIC range without PB Oct. 1, 2006 n = 8",[4],1 to 128 µg/mL
